Measurements taken from ChEMBL document CHEMBL3259791, “Discovery of (E)-3-((styrylsulfonyl)methyl)pyridine and (E)-2-((styrylsulfonyl)methyl)pyridine derivatives as anticancer agents: synthesis, structure-activity relationships, and biological activities” (J Med Chem, 2014).
The source made the active and inactive calls. The calls are words filed in the database; no cut-off is given here.

Legend:
[1] = Octanol-buffer partition coefficient, log D of the compound at pH 7.4 by shake-flask method; assay type: physicochemical
WI-38 [2] = test: Induction of apoptosis in human WI38 cells assessed as early-stage apoptotic cells at 0.06 uM after 48 hrs by annexin V/PI double staining (reference value: 2.16%); assay type: functional
DU-145 [3] = test: Antiproliferative activity against AR negative human DU145 cells assessed as cell growth inhibition after 72 hrs by MTT assay; assay type: functional; details: DU-145, 72 h
A2780 [4] = test: Reduction in Mcl1 level in human A2780 cells at 1 uM after 24 hrs by Western blot analysis; assay type: functional, cell-based
[5] = Dissociation constant, pKa of the compound by pH-metric method; assay type: physicochemical
A2780 [6] = test: Cell cycle arrest in human A2780 cells assessed as accumulation at S phase at 0.06 uM after 24 hrs by flow cytometric analysis (reference value: 22.72%); assay type: functional
A2780 [7] = test: Induction of apoptosis in human A2780 cells assessed as late-stage apoptotic cells at 1 uM after 48 hrs by annexin V/PI double staining (reference value: 10.20%); assay type: functional
[8] = Half life in rat liver microsomes; assay type: ADME
WI-38 [9] = test: Cell cycle arrest in human WI38 cells assessed as accumulation at subG1 phase at […] after 24 hrs by flow cytometric analysis (reference value: 10.53%); assay type: functional
A2780 [10] = test: Cell cycle arrest in human A2780 cells assessed as accumulation at subG1 phase at […] after 24 hrs by flow cytometric analysis (reference value: 0.62%); assay type: functional
[11] = Aqueous solubility of the compound by turbidimetric solubility assay; assay type: physicochemical; details: buffer
A2780 [12] = test: Induction of apoptosis in human A2780 cells assessed as viable cells at 0.06 uM after 48 hrs by annexin V/PI double staining (reference value: 82.12%); assay type: functional; details: A2780, 48 h, read-out: Activity
WI-38 [13] = test: Induction of apoptosis in human WI38 cells assessed as viable cells at 0.06 uM after 48 hrs by annexin V/PI double staining (reference value: 80.59%); assay type: functional; details: WI-38, 48 h, read-out: Activity
A2780 [14] = test: Induction of apoptosis in human A2780 cells assessed as caspase-3/7 activation at 1 uM after 24 hrs by using Apo-ONE homogeneous caspase-3/7 kit; assay type: functional, cell-based
A2780 [15] = test: Cell cycle arrest in human A2780 cells assessed as accumulation at subG1 phase at 1 uM after 24 hrs by flow cytometric analysis (reference value: 0.62%); assay type: functional
[16] = AUC (0 to t) in mouse at 10 mg/kg, po after 24 hrs; assay type: ADME, organism-based; design: time < 24 hr, dose 10 mg/kg, route oral; details: plasma
[17] = Apparent permeability across apical to basolateral side in human Caco2 cells; assay type: ADME, cell-based; details: Caco-2
WI-38 [18] = test: Induction of apoptosis in human WI38 cells assessed as early-stage apoptotic cells at […] after 48 hrs by annexin V/PI double staining (reference value: 2.16%); assay type: functional
A2780 [19] = test: Cell cycle arrest in human A2780 cells assessed as accumulation at G2/M phase at 0.06 uM after 24 hrs by flow cytometric analysis (reference value: 21.81%); assay type: functional
WI-38 [20] = test: Cell cycle arrest in human WI38 cells assessed as accumulation at G2/M phase at 1 uM after 24 hrs by flow cytometric analysis (reference value: 17.36%); assay type: functional
[21] = Oral bioavailability (0 to t) in mouse at 10 mg/kg after 24 hrs; assay type: ADME, organism-based; details: in vivo
A2780 [22] = test: Cell cycle arrest in human A2780 cells assessed as accumulation at G1 phase at […] after 24 hrs by flow cytometric analysis (reference value: 54.89%); assay type: functional
[23] = biological target: Voltage-gated inwardly rectifying potassium channel KCNH2 (Homo sapiens, UniProt Q12809); test: Inhibition of human ERG expressed in CHO cells
Chain of Voltage-gated inwardly rectifying potassium channel KCNH2 (Q12809 whole entry): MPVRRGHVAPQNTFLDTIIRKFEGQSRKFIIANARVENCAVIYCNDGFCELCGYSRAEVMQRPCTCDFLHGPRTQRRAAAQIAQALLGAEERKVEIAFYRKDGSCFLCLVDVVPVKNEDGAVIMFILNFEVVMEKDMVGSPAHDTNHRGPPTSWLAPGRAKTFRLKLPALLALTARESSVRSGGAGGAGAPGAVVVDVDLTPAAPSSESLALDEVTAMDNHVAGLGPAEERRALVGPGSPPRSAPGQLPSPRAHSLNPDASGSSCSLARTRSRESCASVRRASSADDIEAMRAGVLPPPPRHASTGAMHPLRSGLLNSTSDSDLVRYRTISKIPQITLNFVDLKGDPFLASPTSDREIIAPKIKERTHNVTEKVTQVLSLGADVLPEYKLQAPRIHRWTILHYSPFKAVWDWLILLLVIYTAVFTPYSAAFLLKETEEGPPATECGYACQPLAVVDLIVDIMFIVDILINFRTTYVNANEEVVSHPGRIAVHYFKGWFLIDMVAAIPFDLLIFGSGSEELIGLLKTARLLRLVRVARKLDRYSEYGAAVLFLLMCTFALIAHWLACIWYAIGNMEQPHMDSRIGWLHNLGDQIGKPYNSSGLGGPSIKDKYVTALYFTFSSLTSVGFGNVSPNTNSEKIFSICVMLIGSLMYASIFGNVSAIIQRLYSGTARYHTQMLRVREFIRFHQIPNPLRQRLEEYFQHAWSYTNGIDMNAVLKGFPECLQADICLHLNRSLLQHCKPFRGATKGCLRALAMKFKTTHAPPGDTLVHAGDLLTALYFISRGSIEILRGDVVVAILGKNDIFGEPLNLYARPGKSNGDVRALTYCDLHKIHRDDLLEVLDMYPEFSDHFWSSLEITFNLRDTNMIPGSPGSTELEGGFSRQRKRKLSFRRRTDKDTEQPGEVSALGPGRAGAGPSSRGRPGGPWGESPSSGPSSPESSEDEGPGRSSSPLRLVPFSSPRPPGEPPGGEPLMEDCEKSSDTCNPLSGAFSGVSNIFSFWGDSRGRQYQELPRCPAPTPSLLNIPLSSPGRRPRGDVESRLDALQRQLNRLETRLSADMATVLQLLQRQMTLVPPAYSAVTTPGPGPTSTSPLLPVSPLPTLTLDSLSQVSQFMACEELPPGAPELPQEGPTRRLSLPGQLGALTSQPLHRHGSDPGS

WI-38 [24] = test: Cell cycle arrest in human WI38 cells assessed as accumulation at subG1 phase at 0.06 uM after 24 hrs by flow cytometric analysis (reference value: 10.53%); assay type: functional
A2780 [25] = test: Induction of apoptosis in human A2780 cells assessed as early-stage apoptotic cells at […] after 48 hrs by annexin V/PI double staining (reference value: 7.13%); assay type: functional
WI-38 [26] = test: Induction of apoptosis in human WI38 cells assessed as early-stage apoptotic cells at 1 uM after 48 hrs by annexin V/PI double staining (reference value: 2.16%); assay type: functional
[27] = Apparent permeability across basolateral to apical side in human Caco2 cells; assay type: ADME, cell-based; details: Caco-2
A2780 [28] = test: Induction of apoptosis in human A2780 cells assessed as viable cells at 1 uM after 48 hrs by annexin V/PI double staining (reference value: 82.12%); assay type: functional; details: A2780, 48 h, read-out: Activity
WI-38 [29] = test: Induction of apoptosis in human WI38 cells assessed as necrotic cells at 1 uM after 48 hrs by annexin V/PI double staining (reference value: 0.99%); assay type: functional
WI-38 [30] = test: Induction of apoptosis in human WI38 cells assessed as caspase-3/7 activation up to 1 uM after 24 hrs by using Apo-ONE homogeneous caspase-3/7 kit; assay type: functional, cell-based
WI-38 [31] = test: Cell cycle arrest in human WI38 cells assessed as accumulation at G2/M phase at 0.06 uM after 24 hrs by flow cytometric analysis (reference value: 17.36%); assay type: functional
[32] = Cmax in mouse at 40 mg/kg, po after 24 hrs; assay type: ADME, organism-based; design: dose 40 mg/kg, route oral; details: in vivo
LNCaP [33] = test: Ratio of ON01910 IC50 to compound IC50 for AR positive human LNCAP cells; assay type: functional
LNCaP [34] = test: Selectivity ratio of IC50 for human WI38 cells to IC50 for AR positive human LNCAP cells; assay type: functional
[35] = AUC (0 to t) in mouse at 40 mg/kg, po after 24 hrs; assay type: ADME, organism-based; design: time < 24 hr, dose 40 mg/kg, route oral; details: plasma
HCT-116 [36] = test: Selectivity ratio of IC50 for human WI38 cells to IC50 for human HCT116 cells; assay type: functional
A2780 [37] = test: Antitumor activity against human A2780 cells xenografted in mouse assessed as delay tumor growth at 50 mg/kg, po administered every second day for 2 weeks; assay type: functional
A2780 [38] = test: Ratio of ON01910 IC50 to compound IC50 for human A2780 cells; assay type: functional
PANC-1 [39] = test: Ratio of ON01910 IC50 to compound IC50 for human PANC1 cells; assay type: functional
A2780 [40] = test: Induction of apoptosis in human A2780 cells assessed as caspase-3/7 activation at 0.06 uM after 24 hrs by using Apo-ONE homogeneous caspase-3/7 kit; assay type: functional, cell-based
PANC-1 [41] = test: Selectivity ratio of IC50 for human WI38 cells to IC50 for human PANC1 cells; assay type: functional
DU-145 [42] = test: Selectivity ratio of IC50 for human WI38 cells to IC50 for AR negative human DU145 cells; assay type: functional
WI-38 [43] = test: Selectivity ratio of IC50 for human WI38 cells to IC50 for ER negative human MDA-MB-231 cells; assay type: functional
HCT-116 [44] = test: Ratio of ON01910 IC50 to compound IC50 for human HCT116 cells; assay type: functional
[45] = Oral bioavailability (0 to t) in mouse at 40 mg/kg after 24 hrs; assay type: ADME, organism-based; details: in vivo
MDA-MB-231 = test: Ratio of ON01910 IC50 to compound IC50 for ER negative human MDA-MB-231 cells; assay type: functional

## COc1cc(OC)c(/C=C/S(=O)(=O)Cc2ccc(OC)c(NS(C)(=O)=O)n2)c(OC)c1
[1]
  logD: 1.53
WI-38 [2]
  Activity: 2.49%
DU-145 [3]
  GI50: 484 nM
A2780 [4]
  inhibition: Active
[5]
  pKa: 7.28
A2780 [6]
  Activity: 20.54%
A2780 [7]
  Activity: 24.63%
[8]
  half-life: 1.88 h
WI-38 [9]
  Activity: 11.06%
A2780 [10]
  Activity: 0.77%
[11]
  solubility kinetic: > 100 µM
A2780 [12]
  viability at 0.06 µM: 87.4%
WI-38 [13]
  viability at 0.06 µM: 78.1%
A2780 [14]
  Activity: Active
A2780 [15]
  Activity: 7.27%
[16]
  AUC(0-t) at 24 h: 5.6 µM·h
[17]
  Papp A→B: 3.15 ×10⁻⁶ cm/s
WI-38 [18]
  Activity: 2.86%
A2780 [19]
  Activity: 21.08%
WI-38 [20]
  Activity: 26.14%
[21]
  bioavailability: 50%
A2780 [22]
  Activity: 57.35%
[23]
  IC50: > 25000 nM
WI-38 [24]
  Activity: 10.05%
A2780 [25]
  Activity: 5.55%
WI-38 [26]
  Activity: 10.08%
[27]
  Papp B→A: 53.4 ×10⁻⁶ cm/s
A2780 [28]
  viability at 1 µM: 35.6%
WI-38 [29]
  Activity: 1.73%
WI-38 [30]
  Activity: inactive
WI-38 [31]
  Activity: 13.96%

## COc1cc(OC)c(/C=C/S(=O)(=O)Cc2ccc(OC)c(NCC(=O)O)c2)c(OC)c1 [RIGOSERTIB]
WI-38 [2]
  Activity: 1.68%
DU-145 [3]
  GI50: 75 nM
A2780 [6]
  Activity: 26.34%
A2780 [7]
  Activity: 21.83%
WI-38 [9]
  Activity: 9.46%
A2780 [10]
  Activity: 5.98%
A2780 [12]
  viability at 0.06 µM: 89.5%
WI-38 [13]
  viability at 0.06 µM: 85.5%
A2780 [15]
  Activity: 0.32%
WI-38 [18]
  Activity: 5.36%
A2780 [19]
  Activity: 19.63%
WI-38 [20]
  Activity: 19.27%
A2780 [22]
  Activity: 37.71%
WI-38 [24]
  Activity: 5.71%
A2780 [25]
  Activity: 38.11%
WI-38 [26]
  Activity: 8.88%
A2780 [28]
  viability at 1 µM: 26.6%
WI-38 [29]
  Activity: 2.99%
WI-38 [31]
  Activity: 18%

## COc1cc(OC)c(/C=C/S(=O)(=O)Cc2ccc(OC)c(N)n2)c(OC)c1
[1]
  logD: 2.41
[32]
  Cmax: 2500 nM
WI-38 [2]
  Activity: 1.37%
DU-145 [3]
  GI50: 6 nM
[5]
  pKa: 4.67
LNCaP [33]
  Ratio IC50: 10
LNCaP [34]
  Ratio IC50: >1400
A2780 [6]
  Activity: 17.39%
A2780 [7]
  Activity: 21.09%
[35]
  AUC(0-t) at 24 h: 23.1 µM·h
HCT-116 [36]
  Ratio IC50: >1400
[8]
  half-life: 0.25 h
A2780 [37]
  Activity: 52%
WI-38 [9]
  Activity: 12.08%
A2780 [38]
  Ratio IC50: 10
A2780 [10]
  Activity: 12.42%
[11]
  solubility kinetic: > 100 µM
PANC-1 [39]
  Ratio IC50: 10
A2780 [12]
  viability at 0.06 µM: 33.3%
A2780 [40]
  Activity: Active
WI-38 [13]
  viability at 0.06 µM: 82.2%
A2780 [15]
  Activity: 2.71%
PANC-1 [41]
  Ratio IC50: >1400
[17]
  Papp A→B: 33.1 ×10⁻⁶ cm/s
WI-38 [18]
  Activity: 1.49%
A2780 [19]
  Activity: 59.72%
WI-38 [20]
  Activity: 24.94%
DU-145 [42]
  Ratio IC50: >1400
WI-38 [43]
  Ratio IC50: >1400
HCT-116 [44]
  Ratio IC50: 10
A2780 [22]
  Activity: 14.1%
[23]
  IC50: > 25000 nM
WI-38 [24]
  Activity: 13.31%
[45]
  bioavailability: 44%
A2780 [25]
  Activity: 46.99%
MDA-MB-231
  Ratio IC50: 10
WI-38 [26]
  Activity: 2.86%
[27]
  Papp B→A: 26.2 ×10⁻⁶ cm/s
A2780 [28]
  viability at 1 µM: 22.2%
WI-38 [29]
  Activity: 1.83%
WI-38 [30]
  Activity: inactive
WI-38 [31]
  Activity: 22.85%
